# Results from patent publication US20230077362A1 (CORTEVA AGRISCIENCE LLC, priority 2019, published 2023).
# Read-outs that look alike come from different tables or passages of the source.
# Assays:
# [1] = test system: Beet Armyworm (Spodoptera exigua) ("BAW"), second instar larvae; experiment: Bioassay on beet armyworm (BAW), 128-well diet tray assay; assay type: in vivo; details: for pest or weed control at 50 µg/cm2: Spodoptera exigua
# Procedure: (§1) Certain molecules disclosed in this document were tested against BAW and CL using procedures described in the following examples. In the reporting of the results, the “BAW & CL Rating Table” was used (See Table Section).
# (§2) Trays were covered with a clear self-adhesive cover and held at 25° C., 14:10 light-dark cycle for five to seven days. Percent mortality was recorded for the larvae in each well; activity in the eight wells was then averaged. The results are indicated in the table entitled “Table ABC: Biological Results” (See Table Section).
# [2] = test system: Cabbage Looper (Trichoplusia ni) ("CL"), second instar larvae; experiment: Bioassay on cabbage looper (CL), 128-well diet tray assay; assay type: in vivo; details: Trichoplusia ni
# Procedure: as §1, §2
# [3] = read-out: BAW (Biological Results, rating)
# [4] = read-out: CL (Biological Results, rating)
smiles,measurement,setting,value
"CCNc1ccc(C(C)C)c(N2C(=O)CS/C2=N\C(=O)Nc2ccc(-c3ncn(-c4ccc(OC(F)(F)F)cc4)n3)cc2CC)c1 [Compound J158, (Z)-1-(2-Ethyl-4-(1-(4-(trifluoromethoxy)phenyl)-1H-1,2,4-triazol-3-yl)phenyl)-3-(3-(5-(ethylamino)-2-isopropylphenyl)-4-oxothiazolidin-2-ylidene)urea]",pest or weed control at 50 µg/cm2,[1]; [3],50 to 100%
same,pest or weed control at 50 µg/cm2,[2]; [4],50 to 100%
"CN(C)c1ccc(OCC(F)(F)F)c(N2C(=O)CS/C2=N\C(=O)Nc2ccc(-c3ncn(-c4ccc(S(=O)(=O)C(F)(F)F)cc4)n3)cc2F)c1 [Compound J672, (Z)-1-(3-(5-(Dimethylamino)-2-(2,2,2-trifluoroethoxy)phenyl)-4-oxothiazolidin-2-ylidene)-3-(2-fluoro-4-(1-(4-((trifluoromethyl)sulfonyl)phenyl)-1H-1,2,4-triazol-3-yl)phenyl)urea]",pest or weed control at 50 µg/cm2,[1]; read-out: BAW rating,50 to 100%
same,pest or weed control at 50 µg/cm2,[2]; read-out: CL rating,50 to 100%
"COCc1ccc(C)cc1N1C(=O)CS/C1=N\C(=O)Nc1ccc(-n2cnc(-c3ccc(OC(F)(F)F)cc3)c2)cc1Cl [Compound J788, (Z)-1-(2-Chloro-4-(4-(4-(trifluoromethoxy)phenyl)-1H-imidazol-1-yl)phenyl)-3-(3-(2-(methoxymethyl)-5-methylphenyl)-4-oxothiazolidin-2-ylidene)urea]",BAW rating (% control or mortality class),"[1]; Table ABC, species BAW, 128-well diet tray assay, second instar larvae",A (50-100)
same,mortality at 50 µg/cm2,"[2]; Table ABC, species CL, 128-well diet tray assay, second instar larvae, read-out: CL rating (% control or mortality class)",50 to 100%
"Cc1ccc(-c2ccco2)c(N2C(=O)CS/C2=N\C(=O)Nc2ccc(-c3ncn(-c4ccc(OC(F)(F)F)cc4)n3)cc2F)c1 [Compound J489, (Z)-1-(2-Fluoro-4-(1-(4-(trifluoromethoxy)phenyl)-1H-1,2,4-triazol-3-yl)phenyl)-3-(3-(2-(furan-2-yl)-5-methylphenyl)-4-oxothiazolidin-2-ylidene)urea]",pest or weed control at 50 µg/cm2,[1]; read-out: BAW rating,50 to 100%
same,pest or weed control at 50 µg/cm2,[2]; read-out: CL rating,50 to 100%
"COC(c1ccc(C)cc1N1C(=O)CS/C1=N\C(=O)Nc1ccc(-c2nnc(-c3ccc(OC(F)(F)F)cc3)o2)cc1F)C(F)(F)F (centres unmarked) [Compound J433, (Z)-1-(2-Fluoro-4-(5-(4-(trifluoromethoxy)phenyl)-1,3,4-oxadiazol-2-yl)phenyl)-3-(3-(5-methyl-2-(2,2,2-trifluoro-1-methoxyethyl)phenyl)-4-oxothiazolidin-2-ylidene)urea]",pest or weed control at 50 µg/cm2,[1]; read-out: BAW rating,50 to 100%
same,pest or weed control at 50 µg/cm2,[2]; read-out: CL rating,50 to 100%
"COC(c1ccc(C)cc1N1C(=O)CS/C1=N\C(=O)Nc1ccc(-c2cn(-c3ccc(OC(F)(F)F)cc3)nn2)cc1)C(F)(F)F (centres unmarked) [Compound J494, (Z)-1-(3-(5-Methyl-2-(2,2,2-trifluoro-1-methoxyethyl)phenyl)-4-oxothiazolidin-2-ylidene)-3-(4-(1-(4-(trifluoromethoxy)phenyl)-1H-1,2,3-triazol-4-yl)phenyl)urea]",pest or weed control at 50 µg/cm2,[1]; read-out: BAW rating,50 to 100%
same,pest or weed control at 50 µg/cm2,[2]; read-out: CL rating,50 to 100%
"CCCc1ccc(C)cc1N1C(=O)CS/C1=N\C(=O)Nc1ccc(-c2ncn(-c3ccc(OC(F)(F)F)cn3)n2)cc1F [Compound J272, (Z)-1-(2-Fluoro-4-(1-(5-(trifluoromethoxy)pyridin-2-yl)-1H-1,2,4-triazol-3-yl)phenyl)-3-(3-(5-methyl-2-propylphenyl)-4-oxothiazolidin-2-ylidene)urea]",pest or weed control at 50 µg/cm2,[1]; [3],50 to 100%
same,pest or weed control at 50 µg/cm2,[2]; [4],50 to 100%
"COC(c1ccc(C)cc1N1C(=O)CS/C1=N\C(=O)Nc1ccc(-c2nnc(-c3ccc(OC(F)(F)F)cc3)s2)cc1F)C(F)(F)F (centres unmarked) [Compound J505, (Z)-1-(2-Fluoro-4-(5-(4-(trifluoromethoxy)phenyl)-1,3,4-thiadiazol-2-yl)phenyl)-3-(3-(5-methyl-2-(2,2,2-trifluoro-1-methoxyethyl)phenyl)-4-oxothiazolidin-2-ylidene)urea]",pest or weed control at 50 µg/cm2,[2]; read-out: CL rating,50 to 100%
"CN(C)c1ccc(C(F)(F)F)c(N2C(=O)CS/C2=N\C(=O)Nc2ccc(-c3cn(-c4ccc(OC(F)(F)F)cc4)nn3)cc2)c1 [Compound J495, (Z)-1-(3-(5-(Dimethylamino)-2-(trifluoromethyl)phenyl)-4-oxothiazolidin-2-ylidene)-3-(4-(1-(4-(trifluoromethoxy)phenyl)-1H-1,2,3-triazol-4-yl)phenyl)urea]",pest or weed control at 50 µg/cm2,[1]; read-out: BAW rating,0 to 50%
"Cc1ccc(OCCC(F)(F)F)c(N2C(=O)CS/C2=N\C(=O)Nc2ccc(-c3cn(-c4ccc(OC(F)(F)F)cc4)nn3)cc2)c1 [Compound J491, (Z)-1-(3-(5-Methyl-2-(3,3,3-trifluoropropoxy)phenyl)-4-oxothiazolidin-2-ylidene)-3-(4-(1-(4-(trifluoromethoxy)phenyl)-1H-1,2,3-triazol-4-yl)phenyl)urea]",pest or weed control at 50 µg/cm2,[1]; read-out: BAW rating,50 to 100%
"CCOCc1ccc(C)cc1N1C(=O)CS/C1=N\C(=O)Nc1ccc(-c2nnc(-c3ccc(OC(F)(F)F)cc3)s2)cc1F [Compound J503, (Z)-1-(3-(2-(Ethoxymethyl)-5-methylphenyl)-4-oxothiazolidin-2-ylidene)-3-(2-fluoro-4-(5-(4-(trifluoromethoxy)phenyl)-1,3,4-thiadiazol-2-yl)phenyl)urea]",pest or weed control at 50 µg/cm2,[2]; read-out: CL rating,50 to 100%
"Cc1ccc(OCC(F)(F)F)c(N2C(=O)CS/C2=N\C(=O)Nc2ccc(-c3ncn(-c4ccc(OC(F)(F)F)cc4)n3)cc2O)c1 [Compound J176, (Z)-1-(2-Hydroxy-4-(1-(4-(trifluoromethoxy)phenyl)-1H-1,2,4-triazol-3-yl)phenyl)-3-(3-(5-methyl-2-(2,2,2-trifluoroethoxy)phenyl)-4-oxothiazolidin-2-ylidene)urea]",pest or weed control at 50 µg/cm2,[1]; [3],0 to 50%
"CC(=O)c1cc(-c2ncn(-c3ccc(C(F)(F)F)cn3)n2)ccc1NC(=O)/N=C1\SCC(=O)N1c1cc(C)ccc1COCC(F)(F)F [Compound J418, (Z)-1-(2-Acetyl-4-(1-(5-(trifluoromethyl)pyridin-2-yl)-1H-1,2,4-triazol-3-yl)phenyl)-3-(3-(5-methyl-2-((2,2,2-trifluoroethoxy)methyl)phenyl)-4-oxothiazolidin-2-ylidene)urea]",pest or weed control at 50 µg/cm2,[1]; read-out: BAW rating,0 to 50%
"O=C(/N=C1\SCC(=O)N1c1cccc(-c2ccccc2)c1)Nc1ccc(-c2ncn(-c3ccc(OC(F)(F)F)cc3)n2)cc1F [Compound J715, (Z)-1-(3-([1,1′-Biphenyl]-3-yl)-4-oxothiazolidin-2-ylidene)-3-(2-fluoro-4-(1-(4-(trifluoromethoxy)phenyl)-1H-1,2,4-triazol-3-yl)phenyl)urea]",pest or weed control at 50 µg/cm2,[1]; read-out: BAW rating,0 to 50%
"COC(C)c1ccc(C)cc1N1C(=O)CS/C1=N\C(=O)Nc1ccc(-c2ncn(-c3ccc(C(F)(F)F)cn3)n2)cc1C(C)=O (centres unmarked) [Compound J416, (Z)-1-(2-Acetyl-4-(1-(5-(trifluoromethyl)pyridin-2-yl)-1H-1,2,4-triazol-3-yl)phenyl)-3-(3-(2-(1-methoxyethyl)-5-methylphenyl)-4-oxothiazolidin-2-ylidene)urea]",pest or weed control at 50 µg/cm2,[2]; read-out: CL rating,50 to 100%
"Cc1ccc(OCCC(F)(F)F)c(N2C(=O)CS/C2=N\C(=O)Nc2ccc(-c3nnc(-c4ccc(OC(F)(F)F)cc4)s3)cc2F)c1 [Compound J501, (Z)-1-(2-Fluoro-4-(5-(4-(trifluoromethoxy)phenyl)-1,3,4-thiadiazol-2-yl)phenyl)-3-(3-(5-methyl-2-(3,3,3-trifluoropropoxy)phenyl)-4-oxothiazolidin-2-ylidene)urea]",pest or weed control at 50 µg/cm2,[1]; read-out: BAW rating,50 to 100%
